Legend:
Assay in all cases: relative viability (nuclei count vs DMSO), 5 days (fraction); higher = more cells survive
[1] = compound: CCCS(=O)(=O)Nc1ccc(F)c(C(=O)c2c[nH]c3ncc(-c4ccc(Cl)cc4)cc23)c1F [Vemurafenib] + CC(=O)Nc1cccc(-n2c(=O)n(C3CC3)c(=O)c3c(Nc4ccc(I)cc4F)n(C)c(=O)c(C)c32)c1 [Trametinib] (partner 0.02 µM)
How it was run: (§1)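 Lung cancer cell lines in 1536-well plates got either a single drug or a fixed anchor-drug dose together with five library-drug doses (not always all listed) in √10 steps, by pin tool, on the day after seeding. Nuclei were counted after 5 days, and relative viability is the treated-to-vehicle ratio of nuclei counts. Values are medians of duplicate plates.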

[2] = compound: COc1cccc2cc(-c3nc([C@H]4CC[C@H](C(=O)O)CC4)n4ncnc(N)c34)[nH]c12 [OSI-027] + Cc1nc(NC(=O)N2CCC[C@H]2C(N)=O)sc1-c1ccnc(C(C)(C)C(F)(F)F)c1 [Alpelisib] (partner 2 µM)
How it was run: as §1

[3] = compound: Cc1nc(NC(=O)N2CCC[C@H]2C(N)=O)sc1-c1ccnc(C(C)(C)C(F)(F)F)c1 [Alpelisib] + CCNC(=O)c1noc(-c2cc(C(C)C)c(O)cc2O)c1-c1ccc(CN2CCOCC2)cc1 [Luminespib] (partner 0.01 µM)
How it was run: as §1

[4] = compound: Cc1nc(NC(=O)N2CCC[C@H]2C(N)=O)sc1-c1ccnc(C(C)(C)C(F)(F)F)c1 [Alpelisib] + CS(=O)(=O)CCNCc1ccc(-c2ccc3ncnc(Nc4ccc(OCc5cccc(F)c5)c(Cl)c4)c3c2)o1 [Lapatinib] (partner 2 µM)
How it was run: as §1

Cell Line	relative viability ([1]; first compound 0.03162 µM)	relative viability ([1]; first compound 0.3162 µM)	relative viability ([1]; first compound 1 µM)	relative viability ([2]; first compound 0.01 µM)	relative viability ([2]; first compound 0.03162 µM)	relative viability ([2]; first compound 0.1 µM)	relative viability ([2]; first compound 0.3162 µM)	relative viability ([2]; first compound 1 µM)	relative viability ([3]; first compound 0.04 µM)	relative viability ([3]; first compound 0.4 µM)	relative viability ([3]; first compound 1.265 µM)	relative viability ([3]; first compound 4 µM)	relative viability ([4]; first compound 0.04 µM)	relative viability ([4]; first compound 0.1265 µM)	relative viability ([4]; first compound 0.4 µM)	relative viability ([4]; first compound 1.265 µM)	relative viability ([4]; first compound 4 µM)	relative viability ([1]; first compound 0.1 µM)	relative viability ([3]; first compound 0.1265 µM)
PC-14	0.735	0.862	0.803	0.855	0.641	1.01	1.03	0.65	0.154	0.168	0.13	0.144	0.358	0.401	0.301	0.265	0.235		
NCI-H1355	0.454	0.464	0.523	0.764	0.723	0.677	0.345	0.24	0.679	0.83	0.608	0.514	0.963	0.961	0.985	0.918	0.806	0.35	0.575
LXF-289	0.656	0.697	0.733	1.05	1.05	0.991	0.909	0.496	0.69	0.619	0.534	0.632	0.865	0.921	0.958	0.832	0.956	0.599	0.806
LOU-NH91	0.743	0.642	0.861	0.692	0.689	0.616	0.558	0.47	0.239	0.311	0.247	0.27	0.767	0.597	0.632	0.511	0.522	0.656	0.266
NCI-H2170	0.888	0.846	0.89	0.856	0.888	0.593	0.688	0.355	0.561	1.12	0.575	0.373	0.269	0.273	0.239	0.248	0.269		0.875
NCI-H2405	0.622		0.608	0.783	0.664	0.577	0.475	0.33	0.736	0.658	0.486	0.418	1.07	0.945	1.18	0.783	0.781	0.473	0.463
SK-MES-1	0.569	0.589	0.763	0.898	0.841	0.811	0.534	0.337	0.675	0.733	0.527	0.464	0.454	0.463	0.483	0.409	0.37		0.561
NCI-H322M	0.462	0.723	0.547	0.0629	0.772	0.775	0.539	0.521	0.795	0.789	0.45	0.39	0.535	0.666	0.518	0.361	0.423		0.737
NCI-H23	0.295	0.457	0.366	0.594	0.54	0.632	0.481	0.295	0.225	0.244	0.201	0.215	1.09	0.845	1.04	0.621	0.839	0.314	
HCC-15	0.373	0.43	0.429	0.928	0.826	0.806	0.674	0.288	0.252	0.336	0.423	0.145	0.897	0.858	0.94	0.823	0.725	0.363	0.292
NCI-H1437	0.474	0.626	0.629	1	0.676	0.895	0.521	0.272	1.16	1.2	1.07	1.26	0.756	0.91	0.772	0.616	0.602	0.538	1.09
A-427	0.711		0.763	1.04	1.08	0.961	0.82	0.429	0.909	1.09	0.83	0.92	1.03	0.914	0.967	0.926	1.04	0.702	0.881
NCI-H1975	0.328	0.259	0.281	0.659	0.667	0.455	0.38	0.355	0.227	0.199	0.184	0.155	0.874	0.862	0.889	0.619	0.483	0.327	0.204
SK-LU-1	0.468	0.459	0.432	1.25	0.978	0.64	0.394	0.304	0.199	0.202	0.175	0.152	1.07	0.707	0.858	0.767	0.704	0.515	0.222
NCI-H520	0.688	0.706	0.662	1.11	0.833	0.701	0.41	0.205	0.18	0.212	0.245	0.216	0.712	0.765	0.906	0.669	0.631	0.599	0.203
NCI-H1755	0.812	0.761	0.763	0.92	0.849	0.917	0.8	0.353	0.352	0.418	0.42	0.395	1.03	0.962	1.11	0.911	0.851	0.73	0.415
CAL-12T	0.28	0.438	0.442	1.28	0.907	1.09	0.954	0.391	0.394	0.287	0.177	0.332	0.678		0.658		0.496	0.289	0.61

From the supplement of paper PMC10307832
